The text below walks through data of patent US20260077065A1, “Compositions and Methods for Assessing Kinase Activity” (The Board of Trustees of the Leland Stanford Junior …, priority 2022, published 2026).

Data set [1] deals with ERK. The settings on record: mouse, in vivo; cited from earlier work.
In data set [2] the test system is ERK. The data set is described as follows: U87-EGFRvIII stable tKiMBI/tKiMBImut reporter cell lines, bioluminescence. It is filed as cell-based, human. To be noted: for induction of bioluminescence: tKiMBI-expressing cells; for effect on bioluminescence of control cell lines: tKiMBImut-expressing cells. The protocol:
Next, the ability of KiMBIs to report ERK kinase inhibition in human tumor xenografts in mice was tested. U87-EGFRvIII cells were transduced with lentiviruses expressing tKiMBI-T2A-AkaLuc, where AkaLuc allows kinase-independent tracking of tumor location and size (FIG. 6a). Transduced cells were sorted by fluorescence-activated cell sorting (FACS) and selected by antibiotics to generate polyclonal stable cell lines.
Generation of KiMBI-expressing stable tumor cell lines. U87-EGFRvIII and LN229 cells were lentiviral transduced with pLL3.7m-CMV-KiMBI-T2A-AkaLuc-P2A-Blasticidin. Then, 72 h after transfection, cells were dissociated with trypsin and resuspended in DMEM and then changed to PBS. Suspended cells were sorted for the population with medium fluorescence level (20-40%) on a fluorescence-activated cell sorter (FACS), the FACSJazz (BD Biosciences) at Stanford Shared FACS Facility. After cell sorting, the KiMBI-expressing cells were maintained and passaged in corresponding culture medium supplemented with blasticidin (6 μg/mL for both cell lines) to select for stable polyclonal cell lines. Flow cytometry data were analyzed on FlowJo software. The stable KiMBI expression was validated by examination of tdTomato fluorescence in tKiMBI (and its variants) using an EVOS FL Autoimaging system (Thermo Scientific).
(§1) In vitro cell-based bioluminescent assay. Cells were seeded into 96-well Lumitrac plate (Greiner Bio-One) at a density of 1.5-2×10^4 cells per well. After 24 h, cells were transiently transfected with KiMBI-expressing plasmids (5-10 ng per well) with or without caMEK-expressing plasmids (50 ng per well, empty pcDNA3.1 as negative control to keep total transfected DNA amount consistent) using lipofectamine 3000 (Invitrogen) following manufacturer's instructions. For the stable polyclonal KiMBI-expressing cell liens, this lipofection step was skipped. At 24 h after transfection, the cells were treated with drugs at desired concentration in opti-MEM reduced-serum medium (Thermo Fisher) for 1-1.5 hours. Then, for assaying luminescence, Nano-Glo live cell assay system (Promega) was used following manufacturer's instructions. Time-lapse live luminescence was recorded on Safire-2 microplate reader (Tecan) with 100 ms integration and one read per min for 20 min. Luminescence spectrum was measured on a Varioskan LUX multimode microplate reader (Thermo Scientific) using the spectral scanning protocol with 1 s integration for each wavelength at 400-680 nm (1 nm per data point).

In data set [3] the test system is ERK. The data set is described as follows: Imaging of ERK inhibition in intracranially implanted U87-EGFRvIII cells. It is filed as in vivo, mice. As for the experimental part: Tested next was whether KiMBI can report ERK inhibition in the brain tumor xenograft model.
U87-EGFRvIII xenografts are known to disrupt the BBB^16. When the BBB-impermeant GSK1120212 (1 mg/kg i.p.) was administered to the same group of mice, a positive response was also observed, with ˜150% higher tKiMBI signal.
(§2) General procedures of kinase inhibitor injection and in vivo bioluminescence imaging. […] For KiMBI (NanoLuc-based bioluminescent reporter) imaging, mice were i.p. injected with either 1.3 μmol (0.56 mg) of fluorofurimazine (FFz) or cephalofurimazine (CFz) in 150 μl of injectable formulation containing 6 mg poloxamer-407 (P-407) in Dulbecco Phosphate Buffered Saline (DPBS, without Ca^2+ or Mg^2+, no. 21-031-CV, Corning) for imaging. Immediately after luciferin administration, mice were anesthetized using isoflurane, and images were acquired in the Ami HT optical imaging system every 1 min for 10 min, with an air flow containing 1-2% isoflurane for stable anesthesia. Imager settings were: emission filter, open; field of view, 25 cm; f-stop 1.2; binning, 2×2 and exposure time, 30 s. Images were analyzed in Aura 4.0 in vivo imaging software. The above-mentioned conditions and settings were for most in vivo studies unless otherwise stated in the specific procedures.
Molecular imaging of ERK inhibition in intracranially implanted cells. The stereotaxic injection on the 7- to 9-week-old male J:NU mice were similar to the afore-mentioned AAV infection surgery. A Hamilton syringe with a 26-gauge needle was inserted 0.62 mm […] and 1.75 mm lateral to the bregma to a depth of 3.5 mm, and after a 2 min wait the needle was pulled back 0.5 mm to allow space for the cell suspension. Following this, 3×10^4 KiMBI-expressing U87-EGFRvIII or LN-229 stable cells in 1.5 μl of PBS were injected at an injection speed of 0.3 μL/min using the syringe pump. To visualize ERK inhibition in U87-EGFRvIII cell implants, 5 days after cell implantation, tumor-bearing mice were i.p. injected with CFz (0.4 μmol, with 1.8 mg P-407) for imaging. […]

The conditions of data set [4]: previously characterized; cited from earlier work.
Data set [5] has as its system Akt. In words: Molecular imaging of Akt inhibition in subcutaneous U87-EGFRvIII tumor model. It is filed as in vivo. To be noted: same mice after 2-day interval. The text has this: Evaluated next was the capacity of Akt oKiMBI to report Akt inhibition in a subcutaneous tumor model. Engineered U87-EGFRvIII cells that stably express oKiMBI or oKiMBImut were subcutaneously injected at different sites in J:NU mice.

In data set [6] the test system is Akt. In words: BAR (bioluminescent Akt reporter, FLuc) luminescence in HEK293A (caAkt), U87-EGFRvIII and LNCaP cells. The settings on record: all tested cell lines. It is filed as cell-based, human.
The test system of data set [7] is Akt. The data set is described as follows: U87-EGFRvIII cells stably expressing Akt oKiMBI or oKiMBImut, luminescence. It is filed as cell-based, human. The source says:
To assess Akt inhibition in human tumor xenografts in mice, either Akt oKiMBI- or oKiMBImut-expressing U87-EGFRvIII stable cell lines were first engineered through lentiviral transduction (FIG. 17a). Fluorescence-activated cell sorting (FACS) was subsequently employed to sort the transduced cells, followed by antibiotics selection to establish polyclonal stable cell lines.

Data set [8] has as its system Akt. The data set is described as follows: Akt oKiMBI luminescence in HEK293A (caAkt), U87-EGFRvIII and LNCaP cells. It is filed as cell-based, human. The settings on record: all cell lines: HEK293A (caAkt), U87-EGFRvIII, LNCaP.
Data set [9] concerns ERK. The data set is described as follows: Molecular imaging of ERK inhibition in subcutaneous U87-EGFRvIII tumor model. The settings on record: 2 h after injection, FFz imaging. It is filed as in vivo, mice.
Experimental: The ability of tKiMBI to report ERK pathway inhibition in tumors in vivo was assessed. Mice were injected subcutaneously with 10^6 tKiMBI-expressing cells on one side and, to control for differences in substrate delivery between injections, tKiMBImut-expressing reporter cells on the other side (FIG. 7a).
Molecular imaging of ERK inhibition in subcutaneously implanted cells. […]
The test system of data set [10] is ERK. In words: ERK KiMBI cell-based bioluminescent assay, HEK293A cells co-transfected with caMEK.
Excerpt: To develop a luciferase reporter protein whose activity can be activated by ERK inhibition, it was hypothesized that NanoLuc luciferase catalytic activity could be modulated through large ERK-induced conformational changes. Created and tested were fusion proteins of various topologies (FIG. 2a) comprising the NanoLuc NanoBiT fragments, an ERK substrate peptide from Cdc25C^7, and a proline-directed WW phospho-binding domain (WW)^8 from Pin1. In particular, an arrangement was postulated in which binding of phosphorylated substrate (pSub) to WW would force the SmBiT fragment to adopt an unfavorable conformation for LgBiT complementation, would show low luminescence with active ERK and high luminescence with inhibited ERK (FIG. 2b). The KiMBI candidates were screened by co-transfection into HEK293A cells with a constitutively active MEK (caMEK) followed by application of the ERK inhibitor Vx-Ile.
as §1

Data set [11] deals with ERK. In words: Time-lapse imaging of ERK inhibition in intracranially implanted U87-EGFRvIII cells. It is filed as in vivo, mice. As for the experimental part: A non-invasive method with the potential for longitudinal studying of drug pharmacokinetics and pharmacodynamics should allow rapid dose and schedule optimization for drug development.
as §2
Time-lapse imaging of ERK inhibition in intracranially implanted cells. One week after implantation of 10^5 KiMBI-expressing U87-EGFRvIII stable cells, the tumor-bearing mice were i.p. injected with CFz (0.2 μmol, with 0.8 mg P-407) for the initial imaging to establish the signal baseline before drug administration.

Data set [12] concerns ERK. In words: Molecular imaging of ERK inhibition in KiMBI-encoded AAV infected mouse brain. It is filed as in vivo. The protocol:
Using CFz, tested was whether tKiMBI could report the BBB-permeance of ERK pathway inhibitors in living mice. tKiMBI-T2A-caMEK or the negative control tKiMBImut-T2A-caMEK were expressed in mouse striatum by AAV transduction (FIG. 9a).
as §2
Molecular imaging of ERK inhibition in KIMBI-encoded AAV infected mouse brain. […]

For data set [13], the system named is ERK. The data set is described as follows: Imaging of ERK inhibition in intracranially implanted LN-229 cells. It is filed as in vivo, mice. To be noted: one week after implantation.
Experimental: 3×10^4 LN-229 cells expressing tKiMBI or tKiMBImut were implanted into the striatum, and KiMBI assays were performed one week later.
Molecular imaging of ERK inhibition in intracranially implanted cells. The stereotaxic injection on the 7- to 9-week-old male J:NU mice were similar to the afore-mentioned AAV infection surgery. A Hamilton syringe with a 26-gauge needle was inserted 0.62 mm dorsal and 1.75 mm lateral to the bregma to a depth of 3.5 mm, and after a 2 min wait the needle was pulled back 0.5 mm to allow space for the cell suspension. […]

On to `CC(=O)Nc1cccc(-n2c(=O)n(C3CC3)c(=O)c3c(Nc4ccc(I)cc4F)n(C)c(=O)c(C)c32)c1` [GSK1120212, trametinib], for which, in the data set on ERK [1], the “drug level and ERK inhibition in brains of drug-injected mice” value is recorded as “no detectable GSK1120212 or ERK inhibition”. The compound further displayed an induction of bioluminescence in the data set on ERK [2] of roughly 4 fold. The “higher tKiMBI signal” value in the data set on ERK [3] (1 mg/kg i.p., same group of mice) is on record as roughly 150%. Further, the BBB permeation result in data set [4] was “poor BBB permeation”.

Consider `NC(=O)c1cccc2c(N[C@H](CN3CCC3)c3ccc(Cl)c(C(F)(F)F)c3)ncnc12` [M2698], for which the “inhibition of the Akt pathway reported by Akt oKiMBI” value in the data set with Akt [5] is “effective inhibition of the Akt pathway”. Also, the “BAR and BARmut response to Akt inhibitor” value in the data set on Akt [6] is reported as “miniscule positive responses”. In the data set with Akt [7] (cells expressing oKiMBImut), the “signal response of oKiMBImut cells to drug treatment” value was “did not exhibit any signal increase”. Moreover, the “increase in luminescent signals” value in the data set on Akt [7] (cells stably expressing Akt oKiMBI) is reported as roughly 2.5 fold. Besides, the “oKiMBI luminescence response to Akt inhibitor” value in the data set on Akt [8] is “significant increase in luminescence”.

Take `O=C(NOC[C@H](O)CO)c1ccc(F)c(F)c1Nc1ccc(I)cc1F` [PD0325901, mirdametinib]: the “increase in brightness of tKiMBI tumor” value in the data set with ERK [9] (tKiMBI) is given as 100%. In addition, in the data set on ERK [9] (tKiMBImut control), the “increase in brightness of tKiMBImut tumor” value is roughly 10%. In addition, in the data set with ERK [2], the induction of bioluminescence is given as roughly 4 fold and the “effect on bioluminescence of control cell lines” value is listed as “slightly reduced bioluminescence”. The “induction of tKiMBI signal” value in the data set on ERK [10] (AAV plasmids caMEK-T2A-tKiMBI (A1) and tKiMBI-T2A-caMEK (A2), both) is recorded as “approximately 4 fold”. For the same compound, in the data set on ERK [11] (25 mg/kg i.p., tKiMBI), the “return of signal to baseline” value was “backed to baseline on the second day”, the “time for bioluminescence signal to rise to plateau” value is no more than 1 h, the “time post-treatment at which signal declined to about half” value was “around 8 hrs” and the “time until which signal remained high” value is “about 4 h”. Also, in the data set on ERK [11] (after 24 h, tKiMBImut control cells), the “signal increase in control cells” value was roughly 1.4 fold. In addition, in the data set on ERK [12] (25 mg/kg, CFz imaging, tKiMBI-T2A-caMEK), the “bioluminescence of tKiMBI in brain” value is “robustly induced bioluminescence”. Also, in the data set on ERK [12] (AAV-infected mice brain (discussion)), the “able to induce a signal increase in KiMBI” value was “able to induce a signal increase”. Moreover, the “increase in signal from tKiMBI” value in the data set on ERK [13] is recorded as greater than 3 fold. Further, the “increase in tKiMBI signal” value with ERK [3] (after PD0325901 administration, CFz) is listed as roughly 200%. In addition, the “decrease in tKiMBImut signal” value in the data set with ERK [3] (after PD0325901 administration, control reporter) is recorded as roughly 10%. In addition, in data set [4], the BBB permeation entry is “BBB-permeant”.

`O=C(Nc1ccc2[nH]nc(-c3ccncc3)c2c1)[C@@H]1CCN(CC(=O)N2CCN(c3ccc(-c4ncccn4)cc3)CC2)C1` [SCH772984]: in the data set with ERK [2], the induction of bioluminescence is listed as roughly 4 fold and the “effect on bioluminescence of control cell lines” value is “slightly reduced bioluminescence”.

With `Cc1cnc(Nc2ccc(F)cc2Cl)nc1-c1c[nH]c(C(=O)N[C@H](CO)c2cccc(Cl)c2)c1` [Vx-11e], the increase in luminescence in the data set on ERK [10] (03 topology KiMBI candidate, 1 μM Vx-11e) is roughly 65%. Also, the “induction of bKiMBI luminescence by inhibitor” value in the data set with ERK [10] (ERK blue KiMBI (WW F25A)) is given as greater than 10 fold.
